Source: patent publication US6514734B1, “Polybifunctional reagent having a polymeric backbone and latent reactive moieties and bioactive groups” (Surmodics, Inc., priority 1997, dated 2003)
Where no end group is shown, it is not given here.

What was measured:
CPAE cells = test: Cell growth activity of immobilized peptides (MTT); format: cell-based, Calf; settings: for growth on peptide polymers, times that observed on uncoated PS / growth on adsorbed peptides, times that observed on uncoated PS: wet immobilization protocol; for relative cell growth score, Immobil. Peptide Polymer: illuminated, dry immobilization protocol; for relative cell growth score, Immobil. Peptide Polymer / relative cell growth score, Adsorbed Peptide Reagent: relative to uncoated; for relative cell growth score, Adsorbed Peptide Reagent: nonilluminated
Experimental: The growth assays were conducted in 24-well PS culture plates. When PU and SR were evaluated, discs of each material (with or without coatings) were placed in the bottoms of the culture plate wells. When PS was evaluated, the bottoms of the wells were coated. For each assay, uncoated and peptide coated biomaterials (PS, PU, and SR) were seeded with CPAE cells at 1500 cells per well and allowed to proliferate in vitro for 4 to 7 days. Then, the media was aspirated and the cell growth was quantitated using MTT dye.
The following table summarizes results that compared cell growth on uncoated substrates, adsorbed peptides, and peptide polymers. As with the attachment assays, the relative numbers of cells growing on each peptide coated biomaterial was divided by the number of cells growing on the uncoated (UC) biomaterials to obtain a relative cell growth score. Each value represents the average of 1 to 4 different experiments, with each experiment being conducted with 3 or 4 replicates. The dry immobilization protocol described herein was used to immobilize all peptides evaluated. Immobil. Peptide Polymer refers to illuminated peptide polymer. Adsorbed Peptide Reagent refers to non illuminated peptide reagent. ND=not determined.
In addition to the peptides shown in the table above, C/H-II and HEP-III were also evaluated for growth on PS. With these two peptides, growth on adsorbed peptides was 1.0 and 1.1 times that observed on uncoated PS, and growth on peptide polymers was 10.5 and 13 times that observed on uncoated PS. These two peptides (polymers and reagent controls) were immobilized via the wet immobilization protocol. The results with C/H-II and HEP-III are the averages of 1and 2 experiments, respectively, with each experiment being conducted with 4 replicates.

[1] = tested on: Calf pulmonary artery endothelial (CPAE) cells; test: Cell attachment activity of immobilized peptides (MTT); format: cell-based; design: key: cells attached to coated ÷ cells attached to uncoated (MTT); settings: relative to uncoated; for relative cell attachment score, Immobil. Peptide Polymer: illuminated; for relative cell attachment score, Adsorbed Peptide Reagent: nonilluminated
Experimental: Calf pulmonary artery endothelial (CPAE) cells were purchased from ATCC (American Type Culture Collection, Rockville, Md.) and cultured as indicated by ATCC. The attachment assays were conducted in 48-well PS culture plates. When PU and SR were evaluated, discs of each material (with or without coatings) were placed in the bottoms of the culture plate wells. When PS was evaluated, the bottoms of the wells were coated. For each assay, uncoated and peptide coated biomaterials (PS, PU, and SR) were seeded at 50,000 cells per well in serum free media containing 2 mg/ml of bovine serum albumin (BSA fraction V, from Sigma Chemical Company, St. Louis, Mo.). The cells were allowed to attach to each biomaterial for two hours. Then the unattached cells were removed by aspiration, and the wells were rinsed twice with Hank's Balanced Salt Solution (Celox Corp., Hopkins, Minn.). Finally, the attached cells were quantitated by the addition of culture media containing a metabolic dye, MTT [3-(4,5-dimethylthiazol-2-yl)-2,5-diphenyltetrazolium bromide] which is converted from a yellow tetrazolium salt into an insoluble, purple formazan in the presence of viable cells. After a two hour incubation in culture media containing MTT, the media was removed, and the formazan dye that had been deposited inside the viable cells was solubilized (with acidic isopropanol) and read on a spectrophotometer at 570 nm. The absorbance of the formazan is directly proportional to the number of attached, viable cells present per well.
The following table summarizes results of cell attachment assays comparing immobilized peptide polymers and adsorbed peptide reagent controls. In each case, the relative numbers of cells that attached to the peptide-coated biomaterials (as determined by MTT dye) were divided by the number of cells that attached to the uncoated (UC) biomaterials to obtain a relative cell attachment score. Each value represents the average of 1 to 4 different experiments, with each experiment being conducted with 3 or 4 replicates. The peptides were immobilized onto PS using the wet immobilization protocol described herein and the peptides were immobilized onto SR and PU via the dry immobilization protocol. Immobil. Peptide Polymer refers to illuminated peptide polymer. Adsorbed Peptide Reagent refers to nonilluminated peptide reagent. ND=not determined.

[2] = as obtained from Celsus Laboratories; cited from earlier work
bovine thrombin [3] = molecular target: T1, bovine thrombin (Bos taurus, UniProt P00735); test: Activities of hirudin and hirudin polymer in solution (thrombin inhibition, Chromozym TH); format: biochemical; settings: per mg of hirudin
T1 construct: a known amount of bovine thrombin; purchased Sigma Chemical Co., St. Louis, Mo
Experimental: The specific activities of hirudin and hirudin polymer were determined by standard protocols provided by Transgene and are expressed as antithrombin units (ATU's) per mg of hirudin. One ATU is the amount of hirudin that is required to inhibit the proteolytic activity of one NIH unit of thrombin. For these assays, a known amount of bovine thrombin (175-350 NIH units/mg., from Sigma Chemical Co., St. Louis, Mo.) was preincubated with a series of dilutions of hirudin or hirudin polymer, and the remaining thrombin activity was determined with a chromogenic substrate, Chromozym TH (from Boehringer Mannheim Corp, Indianapolis, Ind.). The specific activities of hirudin assayed before and after incorporation into the hirudin polymer were 11,710 and 10,204 ATU/mg, respectively. Therefore incorporation of hirudin into the polymer produced only a 13% decrease in its activity.

bovine thrombin [4] = molecular target: T1, bovine thrombin; settings: from Transgene Laboratories; cited from earlier work
immunoglobulin G (IgG) = test: Activity of protein A polymer coatings: binding and elution of IgG from rabbit serum; settings: for Fold greater IgG on protein A coating: versus uncoated control
Experimental: Protein A is a bacterial protein that binds specifically to the Fc region of immunoglobulin G (IgG) molecules. The activity of the protein A coating on each type of membrane was evaluated by assaying for binding by added IgG. Uncoated membranes were used as controls. For this assay, 2 ml of rabbit serum was diluted 1:5 in PBS and perfused through the coated membranes at 2-3 ml/min. The membranes were then washed with PBS to remove unbound IgG. The bound IgG was then eluted with 0.1 M glycine in 2% acetic acid. The amount of eluted IgG was determined by measuring the absorbance of the eluant at 280 nm and using an extinction coefficient (ε280) of 1.4 ml/cm-mg to calculate the mg of eluted IgG. Also the IgG that eluted from each membrane type was evaluated for purity by reduced SDS PAGE analysis. With the biomaterials coated with protein A polymer, the eluted protein was greater than 90% light and heavy chains of IgG. In contrast, the major protein that eluted from uncoated controls was albumin.
Three discs of each type (PSO or RC) were placed in a MAC-25 holder and evaluated using this procedure.

underivatized HRP = molecular target: T2, underivatized HRP (Armoracia rusticana, UniProt P00433); test: Streptavidin polymer coating on glass rods: nonspecific binding of underivatized HRP
T2 sequence (P00433 31-338): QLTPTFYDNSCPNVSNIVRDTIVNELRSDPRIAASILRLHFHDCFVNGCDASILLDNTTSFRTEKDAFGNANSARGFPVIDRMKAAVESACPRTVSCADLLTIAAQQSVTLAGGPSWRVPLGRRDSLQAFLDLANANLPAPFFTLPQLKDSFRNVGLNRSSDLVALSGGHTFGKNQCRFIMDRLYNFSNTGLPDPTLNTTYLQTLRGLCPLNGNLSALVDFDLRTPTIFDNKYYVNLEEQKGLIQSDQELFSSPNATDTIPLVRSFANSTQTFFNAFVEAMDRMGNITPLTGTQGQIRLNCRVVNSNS
Experimental: (§1) The organosilane primed glass rods were dipped into a solution of streptavidin polymer for 30 seconds. The glass rods were removed from the solution, allowed to air dry, and illuminated for 30 seconds with a Dymax lamp. Adsorption controls were prepared via the same protocol, except that they were not illuminated. Both type of coated rods were washed with PBS containing 0.05% Tween 20 to remove nonadherent streptavidin polymer.
(§2) Streptavidin is a receptor that binds strongly to biotin as its ligand. The activity of streptavidin polymer coating was evaluated by quantifying the binding of added biotin derivatized horseradish peroxidase (biotin-HRP, obtained from Pierce Chemical Company, Rockford, Ill.). The glass rods were incubated for one hour in a 9 μg/ml solution of biotin-HRP. The binding of underivatized HRP (added at 9 μg/mi) was evaluated as a control for nonspecific binding of HRP to the glass rods. The rods were then washed with PBS containing 0.05% Tween 20 to remove nonbound HRP, and the relative activity of bound HRP was evaluated with a TMB peroxidase substrate system (Kirkegaard and Perry Laboratory, Inc., Gaithersburg, Md.). HRP catalyzes the oxidation of TMB and produces a color that is quantitated spectrophotometrically at 405 nm. Each result is the average of 3 determinations.

[5] = tested on: biotin derivatized horseradish peroxidase (biotin-HRP); test: Streptavidin polymer coating on glass rods: binding of biotin-HRP; settings: for Absorbance of Biotin-HRP: glass rods
Experimental: as §1, §2

[6] = Polyurethane, dry immobilization protocol
[7] = Silicone Rubber, dry immobilization protocol

C/H-II polymer: photoreactive polyacrylamide copolymer of C/H-II peptide monomer (SEQ ID NO: 10), BBA-APMA and acrylamide (CKNNQKSEPLIGRKKT; also: photoreactive polyacrylamide copolymer with BBA-APMA and acrylamide)
growth on peptide polymers, times that observed on uncoated PS (CPAE cells): 10.5 times

C/H-V polymer: photoreactive polyacrylamide copolymer of C/H-V peptide monomer (SEQ ID NO: 9), BBA-APMA and acrylamide (CKKWQPPRARI; also: photoreactive polyacrylamide copolymer with BBA-APMA and acrylamide)
relative cell attachment score, Immobil. Peptide Polymer [1, 6]: 1.4
relative cell attachment score, Immobil. Peptide Polymer [1, 7]: 1.3
relative cell growth score, Immobil. Peptide Polymer (CPAE cells; Polystyrene, 4 to 7 days): 11.3
relative cell growth score, Immobil. Peptide Polymer (CPAE cells; Polyurethane): 3.9
relative cell growth score, Immobil. Peptide Polymer (CPAE cells; Silicone Rubber): 1.0

CKKWQPPRARI [C/H-V reagent control, C/H-V peptide not incorporated into polymer, fibronectin-derived, reference compound]
relative cell attachment score, Adsorbed Peptide Reagent ([1]; Silicone Rubber): 0.4
relative cell growth score, Adsorbed Peptide Reagent (CPAE cells; Polystyrene): 1.0
relative cell growth score, Adsorbed Peptide Reagent (CPAE cells; Polyurethane): 0.7
relative cell growth score, Adsorbed Peptide Reagent (CPAE cells; Silicone Rubber): 2.0

Cys Lys Asn Asn Gln Lys Ser GIu Pro Leu Ile Gly Arg Lys Lys Thr [C/H-II reagent control, reference compound]
growth on adsorbed peptides, times that observed on uncoated PS (CPAE cells): 1.0 times

Cys Lys Gly Glu Phe Try Phe Asp Leu Arg Leu Lys Gly Asp Lys [HEP-III reagent control, reference compound]
growth on adsorbed peptides, times that observed on uncoated PS (CPAE cells): 1.1 times

F-9 polymer: photoreactive polyacrylamide copolymer of F-9 peptide monomer (SEQ ID NO:11), BBA-APMA and acrylamide (RYVVLPRPVCFEKK; also: photoreactive polyacrylamide copolymer with BBA-APMA and acrylamide)
relative cell attachment score, Immobil. Peptide Polymer ([1]; Polystyrene, wet immobilization protocol): 5.7
relative cell attachment score, Immobil. Peptide Polymer [1, 6]: 1.9
relative cell attachment score, Immobil. Peptide Polymer [1, 7]: 0.9
relative cell growth score, Immobil. Peptide Polymer (CPAE cells; Polystyrene, 4 to 7 days): 14.8
relative cell growth score, Immobil. Peptide Polymer (CPAE cells; Polyurethane): 7.7
relative cell growth score, Immobil. Peptide Polymer (CPAE cells; Silicone Rubber): 2.4

GRGDSPKKC [RGD reagent control, reference compound]
relative cell attachment score, Adsorbed Peptide Reagent ([1]; Polystyrene): 1.4
relative cell attachment score, Adsorbed Peptide Reagent ([1]; Silicone Rubber): 1.1
relative cell growth score, Adsorbed Peptide Reagent (CPAE cells; Polystyrene): 1.2
relative cell growth score, Adsorbed Peptide Reagent (CPAE cells; Polyurethane): 1.7
relative cell growth score, Adsorbed Peptide Reagent (CPAE cells; Silicone Rubber): 1.1

HEP-III polymer: photoreactive polyacrylamide copolymer of HEP-III peptide monomer (SEQ ID NO: 12), BBA-APMA and acrylamide (CKGEFYFDLRLKGDK; also: photoreactive polyacrylamide copolymer with BBA-APMA and acrylamide)
growth on peptide polymers, times that observed on uncoated PS (CPAE cells): 13 times

RYVVLPRPVCFEKK [F-9 reagent control, F-9 peptide not incorporated into polymer, laminin-derived, reference compound]
relative cell attachment score, Adsorbed Peptide Reagent ([1]; Polystyrene): 0.8
relative cell growth score, Adsorbed Peptide Reagent (CPAE cells; Polystyrene): 1.0
relative cell growth score, Adsorbed Peptide Reagent (CPAE cells; Polyurethane): 1.7
relative cell growth score, Adsorbed Peptide Reagent (CPAE cells; Silicone Rubber): 1.7

heparin [Unbleached heparin]
heparin activity [2]: 152 units/mg

hirudin
specific activity (bovine thrombin [3]): 11,710 ATU/mg
activity of recombinant hirudin as obtained (bovine thrombin [4]): 16,500±2000 ATU/mg

protein A polymer: photoreactive polyacrylamide containing recombinant staphylococcal protein A ligands
IgG eluted (immunoglobulin G (IgG); Polysulfone membrane, average of 10 cycles): 0.680 mg/disc
Fold greater IgG on protein A coating (immunoglobulin G (IgG); Polysulfone): 34
IgG eluted (immunoglobulin G (IgG); Regenerated cellulose membrane, average of 3 cycles): 0.383 mg/disc
Fold greater IgG on protein A coating (immunoglobulin G (IgG); Regenerated cellulose): 64

streptavidin polymer: photoreactive polyacrylamide containing streptavidin ligands
Absorbance of HRP (underivatized HRP; adsorbed (nonilluminated)): 0.065
Absorbance of HRP (underivatized HRP; covalent (photoimmobilized)): 0.056
peroxidase activity of adsorbed, fold less than covalent ([5]; biotin-HRP added): 3.5 fold
Absorbance of Biotin-HRP ([5]; adsorbed (nonilluminated)): 0.285
Absorbance of Biotin-HRP ([5]; covalent (photoimmobilized)): 1.005
